Our source for the MIC values is patent US5869659A, “Heteroatom-containing cyclopentanopyridyl-oxazolidinones” (Bayer Aktiengesellschaft, priority 1996, dated 1999).

Converted amounts (≈) assume the structure as drawn. Like-named read-outs stand apart in the source and are kept apart here.

What all share (assay type): cell-based
One assay relates to Klebs. 57 USA. In words: MIC by serial dilution on Iso-Sensitest agar. The method, then: (§1) The minimum inhibitory concentrations (MICs) were determined by serial dilution tests on Iso-Sensitest agar (Oxoid). For each test substance, a number of agar plates were prepared which contained decreasing concentrations of the active compound. The agar plates were inoculates using a multipoint inoculator (Denley). For inoculation, overnight cultures of the pathogenic organisms were used which had previously been diluted such that each inoculation point contained about 10^4 colony-forming particles. The inoculated agar plates were incubated at 37° C., and the microorganism growth was read off after about 20 hours. The MICs (μg/ml) indicates the lowest active compound concentration at which no growth could be detected using the naked eye.

For another assay, the system named is Staph. 133. Put plainly: MIC by serial dilution on Iso-Sensitest agar. Particulars: 37° C., about 20 hours. The method, then: as §1
The next assay has as its system Staph. 25701. In words: MIC by serial dilution on Iso-Sensitest agar. As to conditions: 37° C., about 20 hours. As for the experimental part: as §1
The test system of the next assay is Psdm. Bonn. Put plainly: MIC by serial dilution on Iso-Sensitest agar. As for the experimental part:
as §1

Another assay concerns E. coli Neumann. Put plainly: MIC by serial dilution on Iso-Sensitest agar. Particulars: Escherichia coli. As for the experimental part:
as §1

For a further assay, the system named is Staph. 48N. Put plainly: MIC by serial dilution on Iso-Sensitest agar. As to conditions: 37° C., about 20 hours. As for the experimental part: as §1
The next assay relates to Staph. 9TV. In words: MIC by serial dilution on Iso-Sensitest agar. The method, then: as §1
Assay [1] concerns Mycobacterium smegmatis DSM 43061. Put plainly: MIC for rapidly growing mycobacteria by broth microdilution. Particulars: Mycolicibacterium smegmatis, DSM43061. As for the experimental part:
(§2) For rapidly growing mycobacteria, the MIC determination was carried out following the method of broth microdilution described by Swenson [cf. J. M. Swenson, C. Thornberry, U. A. Silcox, Rapidly growing mycobacteria. Testing of suceptibility to 34 antimicrobial agents by broth microdilution. Antimicrobial Agents and Chemotherapy Vol. 22, 186-192 (1982)]. A deviation from this was the brain-heart extract medium treated with 0.1% by volume of Tween 80.
(§3) The mycobacterial strains used were obtained from the DSM (German Collection of Microorganisms, Braunschweig). They were incubated at 37° C. in a humid chamber.
(§4) The MICs were read off after 2-4 days when the preparation-free controls had become cloudy as a result of growth.
Background: Dilution methods test growth across graded concentrations, often in twofold steps.

Assay [2] has as its system Mycobacterium smegmatis DSM 43465. Described as above. As to conditions: Mycolicibacterium smegmatis, DSM43465. As for the experimental part:
as §2, §3, §4

Setting [3] is: Staph. 9TV, 37° C., about 20 hours, read-out: MIC.
Setting [4] is: DSM 43061, brain-heart extract medium with 0.1% Tween 80, 37° C., 2-4 days, read-out: MIC.
Setting [5] is: DSM 43465, brain-heart extract medium with 0.1% Tween 80, 37° C., 2-4 days, read-out: MIC.
[6] abbreviates: Klebs. 57 USA, 37° C., about 20 hours, read-out: MIC.
The mark [7] stands for this setting: Psdm. Bonn, 37° C., about 20 hours, read-out: MIC.
Setting [8] is: E. coli Neumann, 37° C., about 20 hours, read-out: MIC.

As usually defined, the MIC is the smallest concentration in the dilution series that meets the test's criterion for growth inhibition. On to `Cn1c(=O)oc2cc(N3CC(CNC(=O)C4CC4)OC3=O)cnc21` (racemic) [Example 11], for which the MIC is more than 64 µg/mL with Klebs. 57 USA (20 h); 8 µg/mL (≈ 24.1 µM) against Staph. 133; 8 µg/mL (≈ 24.1 µM) against Staph. 25701; more than 64 µg/mL in the assay with Psdm. Bonn (20 h); more than 64 µg/mL with E. coli Neumann (20 h); 8 µg/mL (≈ 24.1 µM) against Staph. 48N. For the same compound, the values for the MIC (with Staph. 9TV (setting [3]); in [1] (setting [4]); in [2] (setting [5])) were 4 µg/mL (≈ 12 µM), 8 µg/mL (≈ 24.1 µM) and 4 µg/mL (≈ 12 µM), respectively.
Consider `CCC(=O)NCC1CN(c2cnc3c(c2)oc(=O)n3C)C(=O)O1` (racemic) [Example 12], for which the MIC is more than 64 µg/mL with Klebs. 57 USA (setting [6]); 8 µg/mL (≈ 25 µM) against Staph. 133; 8 µg/mL (≈ 25 µM) against Staph. 25701; more than 64 µg/mL with Psdm. Bonn (setting [7]); more than 64 µg/mL in the assay with E. coli Neumann (setting [8]); 8 µg/mL (≈ 25 µM) in the assay with Staph. 48N. The MIC (against Staph. 9TV (20 h); in assay [1]; in assay [2]) was 4 µg/mL (≈ 12.5 µM) in each case.
For the compound `COC(=O)NCC1CN(c2cnc3c(c2)oc(=O)n3C)C(=O)O1` (racemic) [Example 13], the MIC with Klebs. 57 USA (setting [6]) is more than 64 µg/mL; in the assay on Staph. 133, 8 µg/mL (≈ 24.8 µM); in the assay on Staph. 25701, 8 µg/mL (≈ 24.8 µM); in the assay with Psdm. Bonn (setting [7]) it was more than 64 µg/mL; with E. coli Neumann (setting [8]), more than 64 µg/mL; against Staph. 48N, 8 µg/mL (≈ 24.8 µM). Besides, the minimal inhibitory concentration (MIC) in the assay on Staph. 9TV (setting [3]) was 4 µg/mL (≈ 12.4 µM); in [1] (setting [4]), 8 µg/mL (≈ 24.8 µM); in [2] (setting [5]) it was 8 µg/mL (≈ 24.8 µM).
As for `CC(=O)NCC1CN(c2cnc3c(c2)oc(=O)n3C)C(=O)O1` (stereo not shown) [Example 10, 5-Acetylaminomethyl-3-(3-methyloxazolo[4,5-b]-pyridin-2(3H)-on-6yl)oxazolidin-2-one], the MIC in the assay on Klebs. 57 USA (20 h) is more than 64 µg/mL; in the assay with Staph. 25701, 8 µg/mL (≈ 26.1 µM); in the assay on Psdm. Bonn (20 h) it was more than 64 µg/mL; against E. coli Neumann (20 h) it was more than 64 µg/mL; against Staph. 48N, 8 µg/mL (≈ 26.1 µM); in the assay with Staph. 9TV (setting [3]) it was 4 µg/mL (≈ 13.1 µM). The MIC in assay [1] (setting [4]) and in assay [2] (setting [5]) was 4 µg/mL (≈ 13.1 µM) throughout.
Regarding `CC(=O)NC[C@H]1CN(c2ccc3nc(C)sc3n2)C(=O)O1` [Example 14], the MIC with Klebs. 57 USA (setting [6]) was more than 64 µg/mL; in the assay with Staph. 133, 4 µg/mL (≈ 13.1 µM); against Staph. 25701 it was 4 µg/mL (≈ 13.1 µM); with Psdm. Bonn (setting [7]), more than 64 µg/mL; in the assay with E. coli Neumann (setting [8]), more than 64 µg/mL; against Staph. 48N, 8 µg/mL (≈ 26.1 µM). The MIC in the assay with Staph. 9TV (setting [3]) was 2 µg/mL (≈ 6.53 µM).
On to `NNC(=O)c1ccncc1` [Isoniazide, reference compound], for which the values for the MIC in assay [1] (setting [4]) and in assay [2] (setting [5]) were 4 µg/mL (≈ 29.2 µM) and 1 µg/mL (≈ 7.29 µM), respectively.
`[H]/N=C(/N)N[C@H]1[C@H](O)[C@@H](O)[C@H](O[C@@H]2O[C@@H](C)[C@](O)(C=O)[C@H]2O[C@@H]2O[C@@H](CO)[C@H](O)[C@@H](O)[C@@H]2NC)[C@@H](N/C(N)=N\[H])[C@@H]1O` [Streptomycin, reference compound]: the MIC in assay [1] and in assay [2] was 4 µg/mL (≈ 6.88 µM) in each case.
